Article PMC8395040 (International Journal of Molecular Sciences, 2021)
Like-named read-outs stand apart in the source and are kept apart here.

Experiments:
HCT116 = assay: MTT cytotoxicity assay, HCT116; assay type: cell-based; conditions: Homo sapiens; for cytotoxicity at 50 µM: read-out: % Cytotoxicity (50 µM) HCT116; for IC50: 0.05–50 µM
Procedure: (§1) Cytotoxicity assays were performed by using the MTT reduction method as described previously. Briefly, cancer cell lines were plated in flat-bottom 96-well plates at a cell concentration of 5 × 10^3 cells/well for the fastest growing lines, such as HEK293 and HT29 cells and 1 × 10^4 cells/well for more slowly growing lines, such as HCT116, H1975, BxPC-3, AsPC-1, B16-F10 and DAOY. Then, cells were incubated with the synthesised compounds at different concentrations (from 0.05 to 50 µM) in 200 µL with 10% FBS in RPMI 1640 or DMEM F12 culture medium at 37 °C for 72 h. Later, 10 µL of MTT were added at a final concentration of 0.5 mg/mL, incubated at 37 °C for 4 h, and then solubilised with 10% sodium dodecyl sulphate (SDS) in 0.1 mM HCl and incubated overnight at 37 °C. Formazan formation was measured at 570 nm in a multiwell plate reader (Cytation 5, Biotek Instruments, Winooski, VT, USA). Three independent biological replicates were performed.

BxPC-3 = assay: MTT cytotoxicity assay, BxPC-3; assay type: cell-based; conditions: Homo sapiens, 72 h, 0.05–50 µM
Procedure: as §1

Daoy = assay: MTT cytotoxicity assay, Daoy; assay type: cell-based, human; conditions: 72 h; for IC50: 0.05–50 µM; for cytotoxicity at 50 µM: read-out: % Cytotoxicity (50 µM) DAOY;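 for all read-outs here: viability read as formazan absorbance at 570 nm after MTT reduction, three independent biological replicates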
H1975 = assay: MTT cytotoxicity assay, H1975; assay type: cell-based; conditions: Homo sapiens; for cytotoxicity at 50 µM: read-out: % Cytotoxicity (50 µM) H1975; for IC50: 0.05–50 µM
Procedure: as §1

AsPC-1 = assay: MTT cytotoxicity assay, AsPC-1; assay type: cell-based; conditions: Homo sapiens, ASPC1, 72 h, 0.05–50 µM
Procedure: as §1

HT29 = assay: MTT cytotoxicity assay, HT29; assay type: cell-based; conditions: Homo sapiens; for cytotoxicity at 50 µM: read-out: % Cytotoxicity (50 µM) HT29; for IC50: 0.05–50 µM
Procedure: as §1

HEK293 = assay: MTT cytotoxicity assay, HEK293 control cells; assay type: cell-based, human; conditions: MTT, 72 h, non-cancer cell line;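 note: Read-out is formazan absorbance at 570 nm from MTT reduction in 96-well plates, with three independent biological replicates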
[1] = MTT cytotoxicity assay, HEK293 control cells; assay type: cell-based, human; conditions: human, HEK293 cells; 50 µM, 72 h, MTT;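 note: Read-out is formazan absorbance at 570 nm from MTT reduction in 96-well plates, with three independent biological replicates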

melting point | SMILES | IC50 (HEK293; Homo sapiens, HEK293) | cytotoxicity at 72 h, 50 µM [1] | cytotoxicity at 50 µM (HCT116; HCT-116, 50 µM, 72 h, MTT) | cytotoxicity at 50 µM (Daoy; Homo sapiens, Daoy, 50 µM, MTT) | cytotoxicity at 50 µM (H1975; NCI-H1975, 50 µM, 72 h, MTT) | cytotoxicity at 50 µM (HT29; HT-29, 50 µM, 72 h, MTT) | other results
 | CCCCCn1cnc2c(-c3ccc(OC(F)(F)F)cc3)nc(NC3CCCC3)nc21 [Compound 4b, N-cyclopentyl-9-pentyl-6-(4-(trifluoromethoxy)phenyl)-9H-purin-2-amine] | > 50 µM | < 50% |  |  |  |  | cytotoxicity at 50 µM (HCT116; HCT-116, 72 h): 53 ± 0.9%; IC50 (HCT116; HCT-116, MTT, 72 h): 47 ± 0.9 µM; IC50 (BxPC-3): > 50 µM; IC50 (Daoy; Homo sapiens, Daoy, MTT): > 50 µM; cytotoxicity at 50 µM (Daoy; Homo sapiens, Daoy): 94 ± 0.4%; cytotoxicity at 50 µM (H1975; NCI-H1975, 72 h): 30 ± 1%; IC50 (H1975; NCI-H1975, MTT, 72 h): 30 ± 1 µM; IC50 (AsPC-1): 23.2 ± 0.2 µM; cytotoxicity at 50 µM (HT29; HT-29, 72 h): < 50%; IC50 (HT29; HT-29, MTT, 72 h): > 50 µM
142 to 144 °C | CCCCCCn1cnc2c(-c3ccc(OC(F)(F)F)cc3)nc(N3CCN(c4ccc([N+](=O)[O-])cc4)CC3)nc21 [Compound 4o, 9-Hexyl-2-(4-(4-nitrophenyl)piperazin-1-yl)-6-(4-(trifluoromethoxy)phenyl)-9H-purine] |  | < 50% | < 50% | < 50% | < 50% | < 50% | 
144 to 145 °C | CCCCCCn1cnc2c(-c3ccc(OC(F)(F)F)cc3)nc(N3CCN(c4ccc(OC)cc4)CC3)nc21 [Compound 4q, 9-Hexyl-2-(4-(4-methoxyphenyl)piperazin-1-yl)-6-(4-(trifluoromethoxy)phenyl)-9H-purine] |  | < 50% | < 50% | < 50% | < 50% | < 50% | 
99 to 101 °C | CCCCCCn1cnc2c(-c3ccc(OC(F)(F)F)cc3)nc(N3CCN(c4ccccc4)CC3)nc21 [Compound 4k, 9-Hexyl-2-(4-phenylpiperazin-1-yl)-6-(4-(trifluoromethoxy)phenyl)-9H-purine] |  | < 50% | < 50% | < 50% | < 50% | < 50% | 
 | CCCCn1cnc2c(-c3ccc(OC(F)(F)F)cc3)nc(NC3CCCCC3)nc21 [Compound 4d, 9-Butyl-N-cyclohexyl-6-(4-(trifluoromethoxy)phenyl)-9H-purin-2-amine] |  | < 50% | < 50% | < 50% | < 50% | < 50% | 
126 to 128 °C | CCCCCCn1cnc2c(-c3ccc(OC(F)(F)F)cc3)nc(N3CCN(c4ccc(Cl)cc4)CC3)nc21 [Compound 4m, 2-(4-(4-Chlorophenyl)piperazin-1-yl)-9-hexyl-6-(4-(trifluoromethoxy)phenyl)-9H-purine] |  | < 50% | < 50% | < 50% | < 50% | < 50% | 
 | Nc1ccn([C@@H]2O[C@H](CO)[C@@H](O)C2(F)F)c(=O)n1 [Gemcitabine, reference compound] | 7.5 ± 0.6 µM |  |  |  |  |  | IC50 (BxPC-3): 0.2 ± 0.07 µM; IC50 (AsPC-1): 0.3 ± 0.09 µM
88 to 89 °C | CCCCn1cnc2c(-c3ccc(OC(F)(F)F)cc3)nc(NCC3CCCCC3)nc21 [Compound 4g, 9-Butyl-N-(cyclohexylmethyl)-6-(4-(trifluoromethoxy)phenyl)-9H-purin-2-amine] |  | < 50% | < 50% | < 50% | < 50% | < 50% | 
 | CCCCCn1cnc2c(-c3ccc(OC(F)(F)F)cc3)nc(N3CCN(c4ccccc4)CC3)nc21 [Compound 4j, 9-Pentyl-2-(4-phenylpiperazin-1-yl)-6-(4-(trifluoromethoxy)phenyl)-9H-purine] |  | < 50% | < 50% | < 50% | < 50% | < 50% | 
 | COc1cc([C@@H]2c3cc4c(cc3[C@@H](O[C@@H]3O[C@@H]5CO[C@@H](C)O[C@H]5[C@H](O)[C@H]3O)[C@H]3COC(=O)[C@H]23)OCO4)cc(OC)c1O [Etoposide, reference compound] | 8.4 ± 0.7 µM | 65 ± 0.7% | 90 ± 0.5% |  | 60 ± 1.1% |  | IC50 (HCT116; HCT-116, MTT, 72 h): 9.8 ± 0.5 µM; IC50 (H1975; NCI-H1975, MTT, 72 h): 40 ± 0.2 µM
 | N.N.[Cl][Pt][Cl] [Cisplatin, reference compound] |  |  |  |  |  |  | IC50 (Daoy; MTT): 12 ± 0.7 µM; IC50 (HEK293): 12 ± 1.4 µM
180 to 181 °C | CCCCCn1cnc2c(-c3ccc(OC(F)(F)F)cc3)nc(N3CCN(c4ccc([N+](=O)[O-])cc4)CC3)nc21 [Compound 4n, 9-Pentyl-2-(4-(4-nitrophenyl)piperazin-1-yl)-6-(4-(trifluoromethoxy)phenyl)-9H-purine] |  | < 50% | < 50% | < 50% | < 50% | < 50% | 
 | O=c1[nH]cc(F)c(=O)[nH]1 [Compound 5-FU, 5-fluorouracil, reference compound] | 0.83 ± 0.07 µM | < 50% | 62 ± 1.3% |  |  | 66 ± 4.9% | IC50 (HCT116; HCT-116, MTT, 72 h): 31 ± 0.3 µM; IC50 (HT29; HT-29, MTT, 72 h): 0.51 ± 0.06 µM
84 to 86 °C | CCCCCCn1cnc2c(-c3ccc(OC(F)(F)F)cc3)nc(NC3CCCCC3)nc21 [Compound 4f, N-cyclohexyl-9-hexyl-6-(4-(trifluoromethoxy)phenyl)-9H-purin-2-amine] |  | < 50% | < 50% | < 50% | < 50% | < 50% | 
 | CCCCCCn1cnc2c(-c3ccc(OC(F)(F)F)cc3)nc(NCC3CCCCC3)nc21 [Compound 4i, N-(cyclohexylmethyl)-9-hexyl-6-(4-(trifluoromethoxy)phenyl)-9H-purin-2-amine] |  | < 50% | < 50% | < 50% | < 50% | < 50% | 

SMILES | melting point | IC50 (HEK293; Homo sapiens, HEK293) | cytotoxicity at 72 h, 50 µM [1] | cytotoxicity at 50 µM (HCT116; HCT-116, 50 µM, 72 h, MTT) | cytotoxicity at 50 µM (Daoy; Homo sapiens, Daoy, 50 µM, MTT) | cytotoxicity at 50 µM (H1975; NCI-H1975, 50 µM, 72 h, MTT) | cytotoxicity at 50 µM (HT29; HT-29, 50 µM, 72 h, MTT) | other results
CCCCCn1cnc2c(-c3ccc(OC(F)(F)F)cc3)nc(N3CCN(c4ccc(Cl)cc4)CC3)nc21 [Compound 4l, 9-Pentyl-2-(4-(4-clorophenyl)piperazin-1-yl)-6-(4-(trifluoromethoxy)phenyl)-9H-purine] | 147 to 149 °C |  | < 50% | < 50% | < 50% | < 50% | < 50% | 
CCCCCn1cnc2c(-c3ccc(OC(F)(F)F)cc3)nc(NCC3CCCCC3)nc21 [Compound 4h, N-(cyclohexylmethyl)-9-pentyl-6-(4-(trifluoromethoxy)phenyl)-9H-purin-2-amine] | 78 to 79 °C | > 50 µM | < 50% |  |  |  |  | cytotoxicity at 50 µM (HCT116; HCT-116, 72 h): < 50%; IC50 (HCT116; HCT-116, MTT, 72 h): > 50 µM; IC50 (BxPC-3): > 50 µM; IC50 (Daoy; Homo sapiens, Daoy, MTT): 19 ± 1.1 µM; cytotoxicity at 50 µM (Daoy; Homo sapiens, Daoy): 81 ± 1.1%; cytotoxicity at 50 µM (H1975; NCI-H1975, 72 h): 61 ± 1.2%; IC50 (H1975; NCI-H1975, MTT, 72 h): 39 ± 1.2 µM; IC50 (AsPC-1): > 50 µM; cytotoxicity at 50 µM (HT29; HT-29, 72 h): < 50%; IC50 (HT29; HT-29, MTT, 72 h): > 50 µM
CCCCCCn1cnc2c(-c3ccc(OC(F)(F)F)cc3)nc(NC3CCCC3)nc21 [Compound 4c, N-cyclopentyl-9-hexyl-6-(4-(trifluoromethoxy)phenyl)-9H-purin-2-amine] | 58 to 60 °C | > 50 µM | < 50% |  |  |  |  | cytotoxicity at 50 µM (HCT116; HCT-116, 72 h): < 50%; IC50 (HCT116; HCT-116, MTT, 72 h): > 50 µM; IC50 (BxPC-3): > 50 µM; IC50 (Daoy; Homo sapiens, Daoy, MTT): 31 ± 0.9 µM; cytotoxicity at 50 µM (Daoy; Homo sapiens, Daoy): 69 ± 0.9%; cytotoxicity at 50 µM (H1975; NCI-H1975, 72 h): 19 ± 0.8%; IC50 (H1975; NCI-H1975, MTT, 72 h): 19 ± 0.8 µM; IC50 (AsPC-1): > 50 µM; cytotoxicity at 50 µM (HT29; HT-29, 72 h): < 50%; IC50 (HT29; HT-29, MTT, 72 h): > 50 µM
CCCCCn1cnc2c(-c3ccc(OC(F)(F)F)cc3)nc(N3CCN(c4ccc(OC)cc4)CC3)nc21 [Compound 4p, 9-Pentyl-2-(4-(4-methoxyphenyl)piperazin-1-yl)-6-(4-(trifluoromethoxy)phenyl)-9H-purine] | 118 to 120 °C |  | < 50% | < 50% | < 50% | < 50% | < 50% | 
